The target of data set [1] is T1, CB1 receptors present in the brain (Mus musculus, UniProt P47746).
T1 construct: from tissue; host or cells: whole animal (brain CB1 receptors, in vivo)
Description: Measurement (3): blocking of the hypothermic effect induced by CP55940. Type of data set: in vivo. The note with it: iv at 10 mg/kg.

In data set [2] the target is T1, CB1 receptors present in the brain. Description: Measurement (2): ex vivo [3H]-CP55940 binding assay in mouse brain after intravenous administration. The note with it: iv at 10 mg/kg, read-out: % of inhibition of the binding of [3H]-CP55940 with regard to the CB1 receptors present in the brain.
A short description of data set [3]: Measurement (1): quantification of unchanged compound in mouse brain samples by LC-MS/MS, brain/plasma ratio. The class given is in vivo. Particulars: iv at 3 mg/kg, read-out: Ratio: amount present in the brain/amount present in the plasma.
Description: The low penetration of the compounds of formula (I) at the haematoencephalic barrier (HEB) was evaluated in vivo by: • Measurement (1): the quantification of the compounds of formula (I) (unchanged) in mouse brain samples after intravenous (iv, 3 mg/kg) or oral administration, using the LC-MS/MS analytical technique. • The

This note sets out measurements from US8410137B2, “Thiophene-2-carboxamide derivatives, preparation thereof and therapeutic use thereof” (Sanofi, priority 2008, dated 2013).

T1 sequence (P47746 whole entry): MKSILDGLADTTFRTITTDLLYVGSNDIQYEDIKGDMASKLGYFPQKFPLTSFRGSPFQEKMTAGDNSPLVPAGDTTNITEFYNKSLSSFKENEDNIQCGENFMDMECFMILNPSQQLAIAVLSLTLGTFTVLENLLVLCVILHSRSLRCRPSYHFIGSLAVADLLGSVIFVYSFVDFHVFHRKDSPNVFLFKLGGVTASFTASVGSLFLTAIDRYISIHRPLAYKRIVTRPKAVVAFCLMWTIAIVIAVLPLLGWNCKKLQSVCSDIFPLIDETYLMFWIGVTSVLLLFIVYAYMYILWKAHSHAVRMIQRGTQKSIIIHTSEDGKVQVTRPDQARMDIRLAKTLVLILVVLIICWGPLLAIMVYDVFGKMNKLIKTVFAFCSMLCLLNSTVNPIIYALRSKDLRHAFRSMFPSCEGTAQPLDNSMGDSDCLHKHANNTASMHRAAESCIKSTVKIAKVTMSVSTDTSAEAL

As for `NC(=O)C1(c2ccccc2)CCN(C(=O)c2cc(-c3ccc(OCCCO)cc3)c(-c3ccc(Cl)cc3Cl)s2)CC1` [compound 8, 1-({5-(2,4-dichlorophenyl)-4-[4-(3-hydroxypropoxy)phenyl]-2-thienyl}carbonyl)-4-phenylpiperidine-4-carboxamide], in data set [1], the “% of reversion of the hypothermic effect of CP55940 with regard to the CB1 receptors present in the brain” value is 17.5%. Moreover, the inhibition at 10 mg/kg in data set [2] stood at 13%. Moreover, the Kp in data set [3] amounted to 0.04.

Consider `NC(=O)C1(c2ccccc2)CCN(C(=O)c2cc(-c3ccc(OCCCO)cc3)c(-c3ccccc3Cl)s2)CC1` [compound 45, 1-({5-(2-chlorophenyl)-4-[4-(3-hydroxypropoxy)phenyl]thien-2-yl}carbonyl)-4-phenylpiperidine-4-carboxamide], for which, in data set [1], the “% of reversion of the hypothermic effect of CP55940 with regard to the CB1 receptors present in the brain” value is on record as 35.5%. In data set [2], the inhibition at 10 mg/kg turned out to be 32%.
